Read-outs that look alike come from different tables or passages of the source.
Columns and labels:
[1] = tested on: U-937 cells (human lymphoma); test: 72 Hour IC50 cell death assay (sulforhodamine B); type: cell-based
Description: After the synthesis was complete, the biological activity of the compounds was evaluated.
U-937 human lymphoma cells were plated into the wells of 96 well plate at a density of 15,000 cells per well in 99 μL of RPMI 1640 growth media with 10% FBS and 1% pen-strep. To each well was added 1 μL of compound stock solutions in DMSO at varying concentrations such that the cells were treated with concentrations between 0 μM and 100 μM compound. Each concentration was tested in quintuplicate per plate. In each plate 5 wells received 20 μM doxorubicin as a positive death control and 5 wells received 1 μL of DMSO as a negative control.
After the 72 hour incubation period, the plates were analyzed using a Sulforhodamine B assay (Vichai and Kirtikara, Nat Protoc 2006, 1, 1112-1116). Specifically, to each well of the plate 25 μL of a 50% (w/v) solution of trichloroacetic acid in H2O was added and the plates were incubated for 4 hours at 4° C. The plates were then washed gently with water five times. The plates were allowed to air dry after which 100 μL of a 0.057% (w/v) Sulforhodamine B in a 1% (v/v) acetic acid solution was added to each well for 30 minutes at room temperature. The plates were gently washed 5 times with 1% (v/v) acetic acid and air dried. 200 μL of 10 mM Tris base (pH 10.4) was added to each well and the plates were placed on an orbital shaker for thirty minutes. The level of SRB was quantified fluorometrically at excitation and emission wavelengths 488 and 585 nm, respectively, on a Molecular Devices plate reader and the percent cell death calculated and normalized to the positive control (100% cell death) and the negative control (0% cell death). The percent cell death was averaged for each compound concentration and plotted as a function of compound concentration. The data were fit to a logistical dose response curve using Table curve 2D and the IC50 value was calculated. The experiment was repeated three times and the average of the calculated IC50 values was reported. The standard error of the mean (SEM) was determined and reported for the triplicate experiments.

[2] = Liver microsome stability assay; type: in vitro ADME; conditions: rat liver microsomes, 10 μM, LC/MS
Description: FIG. 4. Liver Microsome Stability Assay. Compounds (10 μM) incubated with liver microsomes for 3 h and quenched with MeCN containing internal standard, analyzed by LC/MS (280 nm). Next, the metabolic stability of the compounds was evaluated in rat liver microsomes. The compounds were evaluated for 3 hours at 10 μM, and the metabolites were observed by LC/MS.

mice = test: Assessment of toxicity in vivo; conditions: mice; scale 0 to 3, or time of death
Text: The level of toxicity was rated on a scale of 0 (no observable adverse effect) to 3 (severe toxicity, almost fatal).

[3] = read-out: U-937 72 h IC50 (μM), Table 1, U-937 cells, 72 h

Row | Structure (SMILES) | RLM 3 h % Stability [2] | IC50 [1, 3] | Mouse Toxicity (mice) | IC50 ([1]; U-937, 72 h, read-out: U-937 72 h IC50 (μM))
1 | C=CCc1cccc(/C=N/NC(=O)CN2CCN(C(=O)c3ccccc3)CC2)c1O [Compound 3, N′-(3-allyl-2-hydroxybenzylidene)-2-(4-benzoylpiperazin-1-yl)acetohydrazide] | 89 ± 4% | 12.1 ± 1.3 µM | 3 | 
2 | C=CCc1cccc(/C=N/NC(=O)CN2CCN(Cc3ccc(C#N)cc3)CC2)c1O [Compound 4, N′-(3-allyl-2-hydroxybenzylidene)-2-(4-(4-cyanobenzyl)piperazin-1-yl)acetohydrazide] | 48 ± 2% | 13.7 ± 0.9 µM | 1 | 
3 | C=CCc1cccc(/C=N/NC(=O)CN2CCN(C(=O)c3ccc(C#N)cc3)CC2)c1O [Compound 5, N′-(3-allyl-2-hydroxybenzylidene)-2-(4-(4-cyanobenzoyl)piperazin-1-yl)acetohydrazide] | 90 ± 4% | 13.1 ± 3.7 µM | death >72 h (greater than 72 hours post-treatment) | 
4 | C=CCc1cccc(/C=N/NC(=O)CN2CCN(Cc3ccc(F)cc3)CC2)c1O [Compound 6, N′-(3-allyl-2-hydroxybenzylidene)-2-(4-(4-fluorobenzyl)piperazin-1-yl)acetohydrazide] | 31 ± 1% | 11.1 ± 2.1 µM | 3 | 
5 | C=CCc1cccc(/C=N/NC(=O)CN2CCN(Cc3ccc(C(F)(F)F)cc3)CC2)c1O [Compound 8, N′-(3-allyl-2-hydroxybenzylidene)-2-(4-(4-(trifluoromethyl)benzyl)piperazin-1-yl)acetohydrazide] | 16 ± 1% |  |  | 
6 | CCCc1cccc(/C=N/NC(=O)CN2CCN(Cc3ccc(S(N)(=O)=O)cc3)CC2)c1O [Compound 11, 4-((4-(2-(2-(2-hydroxy-3-propylbenzylidene)hydrazinyl)-2-oxoethyl)piperazin-1-yl)methyl)benzenesulfonamide] | 61 ± 2% |  |  | 
7 | CCCc1cccc(/C=N/NC(=O)CN2CCN(C(=O)c3ccccc3)CC2)c1O [Compound 12, 2-(4-benzoylpiperazin-1-yl)-N′-(2-hydroxy-3-propylbenzylidene)acetohydrazide] | 71 ± 3% | 9.4 ± 1.3 µM |  | 
8 | CCCc1cccc(/C=N/NC(=O)CN2CCN(Cc3ccc(C#N)cc3)CC2)c1O [Compound 13, 2-(4-(4-cyanobenzyl)piperazin-1-yl)-N′-(2-hydroxy-3-propylbenzylidene)acetohydrazide] | 30 ± 2% | 9 ± 1.2 µM |  | 
9 | CCCc1cccc(/C=N/NC(=O)CN2CCN(Cc3ccc(C(F)(F)F)cc3)CC2)c1O [Compound 17] | 15 ± 2% |  |  | 
10 | CCCc1cccc(/C=N/NC(=O)CN2CCN(C(=O)c3ccc(C(F)(F)F)cc3)CC2)c1O [Compound 18, N′-(2-hydroxy-3-propylbenzylidene)-2-(4-(4-(trifluoromethyl)benzoyl)piperazin-1-yl)acetohydrazide] | 64 ± 1% |  |  | 
11 | O=C(CN1CCN(C(=O)c2ccccc2)CC1)N/N=C/c1cc(F)ccc1O [Compound 21, 2-(4-benzoylpiperazin-1-yl)-N′-(5-fluoro-2-hydroxybenzylidene)acetohydrazide] | 88 ± 1% | 15.7 ± 2.6 µM |  | 
12 | N#Cc1ccc(C(=O)N2CCN(CC(=O)N/N=C/c3cc(F)ccc3O)CC2)cc1 [Compound 23, 2-(4-(4-cyanobenzoyl)piperazin-1-yl)-N′-(5-fluoro-2-hydroxybenzylidene)acetohydrazide] | 88 ± 4% |  |  | 15.3 ± 1.3 µM
13 | CCCc1cc(F)cc(/C=N/NC(=O)CN2CCN(Cc3ccc(S(N)(=O)=O)cc3)CC2)c1O [Compound 38, 4-((4-(2-(2-(5-fluoro-2-hydroxy-3-propylbenzylidene)hydrazinyl)-2-oxoethyl)piperazin-1-yl)methyl)benzenesulfonamide] | 62 ± 3% |  |  | 
14 | CCCc1cc(F)cc(/C=N/NC(=O)CN2CCN(Cc3ccc(F)cc3)CC2)c1O [Compound 42, N′-(5-fluoro-2-hydroxy-3-propylbenzylidene)-2-(4-(4-fluorobenzyl)piperazin-1-yl)acetohydrazide] | 48 ± 1% | 7.5 ± 0.7 µM |  | 
15 | CCCc1cc(F)cc(/C=N/NC(=O)CN2CCN(Cc3ccc(C(F)(F)F)cc3)CC2)c1O [Compound 44, N′-(5-fluoro-2-hydroxy-3-propylbenzylidene)-2-(4-(4-(trifluoromethyl)benzyl)piperazin-1-yl)acetohydrazide] | 40 ± 1% |  |  | 

Continued, in another order:

Row | RLM 3 h % Stability [2] | Structure (SMILES) | IC50 [1, 3] | Mouse Toxicity (mice) | IC50 ([1]; U-937, 72 h, read-out: U-937 72 h IC50 (μM))
16 | 85 ± 6% | C=CCc1cccc(/C=N/NC(=O)CN2CCN(C(=O)c3ccc(C(F)(F)F)cc3)CC2)c1O [Compound 9, N′-(3-allyl-2-hydroxybenzylidene)-2-(4-(4-(trifluoromethyl)benzoyl)piperazin-1-yl)acetohydrazide] |  |  | 
17 | 61 ± 3% | CCCc1cccc(/C=N/NC(=O)CN2CCN(C(=O)c3ccc(C#N)cc3)CC2)c1O [Compound 14, 2-(4-(4-cyanobenzoyl)piperazin-1-yl)-N′-(2-hydroxy-3-propylbenzylidene)acetohydrazide] | 12.8 ± 2.7 µM |  | 
18 | 69 ± 4% | CCCc1cccc(/C=N/NC(=O)CN2CCN(C(=O)c3ccc(F)cc3)CC2)c1O [Compound 16, 2-(4-(4-fluorobenzoyl)piperazin-1-yl)-N′-(2-hydroxy-3-propylbenzylidene)acetohydrazide] | 7.3 ± 0.9 µM |  | 
19 | 86 ± 2% | O=C(CN1CCN(C(=O)c2ccc(F)cc2)CC1)N/N=C/c1cc(F)ccc1O [Compound 25, N′-(5-fluoro-2-hydroxybenzylidene)-2-(4-(4-fluorobenzoyl)piperazin-1-yl)acetohydrazide] | 15.3 ± 0.8 µM |  | 
20 | 89 ± 3% | C=CCc1cc(F)cc(/C=N/NC(=O)CN2CCN(Cc3ccc(S(N)(=O)=O)cc3)CC2)c1O [Compound 29, 4-((4-(2-(2-(3-allyl-5-fluoro-2-hydroxybenzylidene)hydrazinyl)-2-oxoethyl)piperazin-1-yl)methyl)benzenesulfonamide] |  |  | 
21 | 65 ± 2% | C=CCc1cc(F)cc(/C=N/NC(=O)CN2CCN(Cc3ccc(C#N)cc3)CC2)c1O [Compound 31, N′-(3-allyl-5-fluoro-2-hydroxybenzylidene)-2-(4-(4-cyanobenzyl)piperazin-1-yl)acetohydrazide] | 12.7 ± 2 µM |  | 
22 | 95 ± 4% | C=CCc1cc(F)cc(/C=N/NC(=O)CN2CCN(C(=O)c3ccc(C#N)cc3)CC2)c1O [Compound 32, N′-(3-allyl-5-fluoro-2-hydroxybenzylidene)-2-(4-(4-cyanobenzoyl)piperazin-1-yl)acetohydrazide] |  |  | 
23 | 57 ± 1% | C=CCc1cc(F)cc(/C=N/NC(=O)CN2CCN(Cc3ccc(F)cc3)CC2)c1O [Compound 33, N′-(3-allyl-5-fluoro-2-hydroxybenzylidene)-2-(4-(4-fluorobenzyl)piperazin-1-yl)acetohydrazide] | 10.3 ± 4.1 µM |  | 
24 | 49 ± 3% | C=CCc1cc(F)cc(/C=N/NC(=O)CN2CCN(Cc3ccc(C(F)(F)F)cc3)CC2)c1O [Compound 35, N′-(3-allyl-5-fluoro-2-hydroxybenzylidene)-2-(4-(4-(trifluoromethyl)benzyl)piperazin-1-yl)acetohydrazide] |  |  | 
25 | 90 ± 2% | C=CCc1cc(F)cc(/C=N/NC(=O)CN2CCN(C(=O)c3ccc(C(F)(F)F)cc3)CC2)c1O [Compound 36, N′-(3-allyl-5-fluoro-2-hydroxybenzylidene)-2-(4-(4-(trifluoromethyl)benzoyl)piperazin-1-yl)acetohydrazide] |  |  | 
26 | 49 ± 5% | CCCc1cc(F)cc(/C=N/NC(=O)CN2CCN(Cc3ccc(C#N)cc3)CC2)c1O [Compound 40, 2-(4-(4-cyanobenzyl)piperazin-1-yl)-N′-(5-fluoro-2-hydroxy-3-propylbenzylidene)acetohydrazide] | 11.2 ± 0.9 µM |  | 
27 | 66 ± 3% | CCCc1cc(F)cc(/C=N/NC(=O)CN2CCN(C(=O)c3ccc(C#N)cc3)CC2)c1O [Compound 41, 2-(4-(4-cyanobenzoyl)piperazin-1-yl)-N′-(5-fluoro-2-hydroxy-3-propylbenzylidene)acetohydrazide] |  |  | 
28 | 64 ± 5% | CCCc1cc(F)cc(/C=N/NC(=O)CN2CCN(C(=O)c3ccc(C(F)(F)F)cc3)CC2)c1O [Compound 45, N′-(5-fluoro-2-hydroxy-3-propylbenzylidene)-2-(4-(4-(trifluoromethyl)benzoyl)piperazin-1-yl)acetohydrazide] |  |  | 

Reference: patent publication US9249116B2, “Enzyme-activating compounds and compositions” (The Board of Trustees of the University of Illinois, priority 2012, dated 2016)
